# Experimental data published in patent publication US20250213547A1, “METHODS OF TREATING NEUROLOGICAL DISEASES” (priority 2022, published 2025).
# Several values for one entry are separate records, joined by “and”; a condition that tells them apart may be missing. Equal entries are not always repeated. Where two headings read alike, the source gives them in different places.
# Assay: Healthy Japanese subjects, Part 2 (100, 200, 300 mg BID up-titration): PK of TAK-935 and M-I
# Assay type: in vivo, human
# Conditions: for AUlast/D (dose-normalized): mean (% CV); for AUC / Cmax / Tmax / Vd/F / AUC(0-t) / half-life: human, oral; for Vd/F: read-out: Vz/F; for half-life: read-out: t1/2z (terminal disposition phase half-life) (converted)
# Protocol: This study consisted of 2 parts, and was a randomized, double-blind, placebo-controlled study to assess safety, tolerability, and PK and PD of TAK-935 when administered orally in healthy Japanese subjects.
# TAK-935 or placebo was administered to the 9 subjects at the dose of 100 mg BID from Day 1 to Day 7, then 200 mg BID from Day 8 to Day 14, and finally 300 mg BID from Day 15 to Day 21, and safety, PK and PD were investigated. The planned dose levels of TAK-935 to be evaluated are outlined in Table 40a.
# After the screening visit, eligible participants checked—in on Day-2. On Day 1, eligible participants were randomized 6:3 to TAK-935 or placebo in double-blinded fashion. No stratification variables were used for randomization. Study drug was administered every day by oral administration of multiple dosing with up-titration of TAK-935 to 9 subjects firstly at 100 mg BID from Day 1 to Day 7, then at 200 mg BID from Day 8 to Day 14, and finally at 300 mg BID from Day 15 to Day 21, successively. The subjects were discharged on Day 24. Intensive PK samplings were performed on Day 1, Day 7, Day 14 and Day 21.
# Subjects received multiple oral doses of TAK-935 or placebo escalating from 100 mg BID, 200 mg BID, and then to 300 mg BID with 150 mL of water for 7 days per each dose level. For the morning dose, subjects were kept fasted for at least 8 hours before administration and up to 2 hours after administration. The evening dose was administered at any time between 8 hours and 12 hours after the morning dose, but prior to the evening meal except for Days 1, 7, 14, and 21. On Days 1, 7, 14, and 21, the evening dose was administered 12 hours after the morning dose and prior to the evening meal. • Identity of Study Drugs • Study drug refers to TAK-935 100 mg tablet and matching placebo. • Compound: Code name: TAK-935 • Dosage forms: TAK-935 100 mg tablets and matching placebo tablets were used in this study. The TAK-935 tablets and placebo tablets were yellow-red film-coated tablets for oral administration.
# Blood samples for PK analysis of TAK-935 and its metabolites (M-I) were collected into blood collection tubes (vacutainer) containing the anticoagulant K2EDTA (Table 40e and Table 40f).
# The PK parameters of TAK-935 and its metabolites (M-I) were determined from the concentration-time profiles for all evaluable subjects. Actual sampling times, rather than scheduled sampling times, were used in all computations involving sampling times. The following PK parameters were calculated from plasma concentrations of TAK-935 and its metabolites (M-I), unless otherwise specified: […]
# [1] = Day 1 (100 mg BID), Part 2, Median
# [2] = Day 1, TAK-935 100 mg BID, plasma, mean
# [3] = Day 7 (100 mg BID), Part 2, Median
# [4] = Day 7, TAK-935 100 mg BID, plasma, mean
# [5] = Day 14 (200 mg BID), Part 2, Median
# [6] = Day 14, TAK-935 200 mg BID, plasma, mean
# [7] = Day 21 (300 mg BID), Part 2, Median
# [8] = Day 21, TAK-935 300 mg BID, plasma, mean
# [9] = plasma, 100 mg, Day 1, TAK-935 100 mg BID, plasma, mean
# [10] = plasma, 100 mg, Day 7, TAK-935 100 mg BID, plasma, mean
# [11] = plasma, 200 mg, Day 14, TAK-935 200 mg BID, plasma, mean
# [12] = plasma, 300 mg, Day 21, TAK-935 300 mg BID, plasma, mean
structure (smiles),measurement,setting,value
O=C(c1cccnc1-c1ccncc1)N1CCC(O)(Cc2ccccc2)CC1 [soticlestat],CL/F,[1],501.5 L/H
same,Lambda z,[1],0.2135 h⁻¹
same,T1/2z,[1],3.275 h
same,CL/F,[2],451.8 L/h
same,Lambda z,[2],0.2042 h⁻¹
same,CL/F,[3],443.0 L/H
same,Lambda z,[3],0.2180 h⁻¹
same,T1/2z,[3],3.270 h
same,CL/F,[4],551.8 L/h
same,Lambda z,[4],0.2325 h⁻¹
same,AUlast/D (dose-normalized),"Day 7, TAK-935 100 mg BID, plasma",2.238 (49.3) h*ng/mL/mg
same,CL/F,[5],254.0 L/H
same,Lambda z,[5],0.2685 h⁻¹
same,T1/2z,[5],2.575 h
same,CL/F,[6],276.7 L/h and 276.4 L/h
same,Lambda z,[6],0.2775 h⁻¹
same,AUlast/D (dose-normalized),"Day 14, TAK-935 200 mg BID, plasma",4.298 (44.9) h*ng/mL/mg
same,CL/F,[7],147.0 L/H
same,Lambda z,[7],0.3095 h⁻¹
same,T1/2z,[7],2.240 h
same,CL/F,[8],158.0 L/h
same,Lambda z,[8],0.2708 h⁻¹
same,AUlast/D (dose-normalized),"Day 21, TAK-935 300 mg BID, plasma",6.725 (25.2) h*ng/mL/mg
same,Mean t1/2z,"TAK-935, Day 1, 100 mg BID",5.988 h
same,Mean t1/2z,"TAK-935, Day 7, 100 mg BID",3.630 h
same,Mean t1/2z,"TAK-935, Day 14, 200 mg BID",2.620 h
same,Mean t1/2z,"TAK-935, Day 21, 300 mg BID",2.927 h
same,accumulation of Cmax and AUC,"TAK-935, multiple dose administration",< 6%
same,AUC,"plasma, 100 mg, Day 1 (100 mg BID), Part 2, Geo Mean, read-out: AUC1ast",209 ng·h/mL
same,AUC,"plasma, 100 mg, Day 1 (100 mg BID), Part 2, Geo Mean, read-out: AUCtau",209 ng·h/mL
same,Cmax,"plasma, 100 mg, Day 1 (100 mg BID), Part 2, Geo Mean, read-out: Cmax",201 ng/mL
same,Tmax,"plasma, 100 mg, Day 1 (100 mg BID), Part 2, Mean, read-out: Tmax",52.5 min
same,AUC,"plasma, 100 mg, Day 1 (100 mg BID), Part 2, Median, read-out: AUC1ast",160 ng·h/mL
same,AUC,"plasma, 100 mg, Day 1 (100 mg BID), Part 2, Median, read-out: AUCtau",160 ng·h/mL
same,Cmax,"plasma, 100 mg, Day 1 (100 mg BID), Part 2, Median, read-out: Cmax",146 ng/mL
same,Vd/F,"plasma, 100 mg, Day 1 (100 mg BID), Part 2, Median",2450 L
same,AUC(0-t),[9],232 ng·h/mL
same,AUC,"plasma, 100 mg, Day 1, TAK-935 100 mg BID, plasma, mean, read-out: AUCτ (AUC during a dosing interval)",232 ng·h/mL
same,Cmax,"plasma, 100 mg, Day 1, TAK-935 100 mg BID, plasma, mean, read-out: Cmax",255 ng/mL
same,Vd/F,[9],4100 L
same,half-life,[9],359 min
same,Tmax,"plasma, 100 mg, Day 1, TAK-935 100 mg BID, plasma, median, read-out: tmax",45 min
same,AUC,"plasma, 100 mg, Day 7 (100 mg BID), Part 2, Geo Mean, read-out: AUC1ast",201 ng·h/mL
same,AUC,"plasma, 100 mg, Day 7 (100 mg BID), Part 2, Geo Mean, read-out: AUCtau",202 ng·h/mL
same,Cmax,"plasma, 100 mg, Day 7 (100 mg BID), Part 2, Geo Mean, read-out: Cmax",146 ng/mL
same,Tmax,"plasma, 100 mg, Day 7 (100 mg BID), Part 2, Mean, read-out: Tmax",50 min
same,AUC,"plasma, 100 mg, Day 7 (100 mg BID), Part 2, Median, read-out: AUC1ast",226 ng·h/mL
same,AUC,"plasma, 100 mg, Day 7 (100 mg BID), Part 2, Median, read-out: AUCtau",226 ng·h/mL
same,Cmax,"plasma, 100 mg, Day 7 (100 mg BID), Part 2, Median, read-out: Cmax",148 ng/mL
same,Vd/F,"plasma, 100 mg, Day 7 (100 mg BID), Part 2, Median",2600 L
same,AUC(0-t),[10],224 ng·h/mL
same,AUC,"plasma, 100 mg, Day 7, TAK-935 100 mg BID, plasma, mean, read-out: AUCτ (AUC during a dosing interval)",224 ng·h/mL
same,Cmax,"plasma, 100 mg, Day 7, TAK-935 100 mg BID, plasma, mean, read-out: Cmax",204 ng/mL
same,Vd/F,[10],2940 L
same,half-life,[10],218 min
same,Tmax,"plasma, 100 mg, Day 7, TAK-935 100 mg BID, plasma, median, read-out: tmax",30 min
same,Tmax,"plasma, 100 mg, TAK-935, Day 1, 100 mg BID, read-out: Median Tmax",45 min
same,AUC,"plasma, 100 mg, TAK-935, Day 1, first dose 100 mg BID, read-out: Mean AUCτ",232 ng·h/mL
same,Cmax,"plasma, 100 mg, TAK-935, Day 1, first dose 100 mg BID, read-out: mean Cmax",255 ng/mL
same,AUC,"plasma, 100 mg, TAK-935, Day 7, 100 mg BID, read-out: Mean AUCτ",224 ng·h/mL
same,Cmax,"plasma, 100 mg, TAK-935, Day 7, 100 mg BID, read-out: mean Cmax",204 ng/mL
same,AUC,"plasma, 200 mg, Day 14 (200 mg BID), Part 2, Geo Mean, read-out: AUC1ast",788 ng·h/mL
same,AUC,"plasma, 200 mg, Day 14 (200 mg BID), Part 2, Geo Mean, read-out: AUCtau",789 ng·h/mL
same,Cmax,"plasma, 200 mg, Day 14 (200 mg BID), Part 2, Geo Mean, read-out: Cmax",836 ng/mL
same,Tmax,"plasma, 200 mg, Day 14 (200 mg BID), Part 2, Mean, read-out: Tmax",40 min
same,AUC,"plasma, 200 mg, Day 14 (200 mg BID), Part 2, Median, read-out: AUC1ast",794 ng·h/mL
same,AUC,"plasma, 200 mg, Day 14 (200 mg BID), Part 2, Median, read-out: AUCtau",794 ng·h/mL
same,Cmax,"plasma, 200 mg, Day 14 (200 mg BID), Part 2, Median, read-out: Cmax",1030 ng/mL
same,Vd/F,"plasma, 200 mg, Day 14 (200 mg BID), Part 2, Median",1030 L
same,AUC(0-t),[11],860 ng·h/mL
same,AUC,"plasma, 200 mg, Day 14, TAK-935 200 mg BID, plasma, mean, read-out: AUCτ (AUC during a dosing interval)",861 ng·h/mL
same,Cmax,"plasma, 200 mg, Day 14, TAK-935 200 mg BID, plasma, mean, read-out: Cmax",980 ng/mL
same,Vd/F,[11],1090 L
same,half-life,[11],157 min
same,Tmax,"plasma, 200 mg, Day 14, TAK-935 200 mg BID, plasma, median, read-out: tmax",30 min
same,AUC,"plasma, 200 mg, TAK-935, Day 14, 200 mg BID, read-out: Mean AUCτ",861 ng·h/mL
same,Cmax,"plasma, 200 mg, TAK-935, Day 14, 200 mg BID, read-out: mean Cmax",980 ng/mL
same,AUC,"plasma, 300 mg, Day 21 (300 mg BID), Part 2, Geo Mean, read-out: AUC1ast",1960 ng·h/mL
same,AUC,"plasma, 300 mg, Day 21 (300 mg BID), Part 2, Geo Mean, read-out: AUCtau",1960 ng·h/mL
same,Cmax,"plasma, 300 mg, Day 21 (300 mg BID), Part 2, Geo Mean, read-out: Cmax",1940 ng/mL
same,Tmax,"plasma, 300 mg, Day 21 (300 mg BID), Part 2, Mean, read-out: Tmax",32.5 min
same,AUC,"plasma, 300 mg, Day 21 (300 mg BID), Part 2, Median, read-out: AUC1ast",2040 ng·h/mL
same,AUC,"plasma, 300 mg, Day 21 (300 mg BID), Part 2, Median, read-out: AUCtau",2040 ng·h/mL
same,Cmax,"plasma, 300 mg, Day 21 (300 mg BID), Part 2, Median, read-out: Cmax",1600 ng/mL
same,Vd/F,"plasma, 300 mg, Day 21 (300 mg BID), Part 2, Median",620 L
same,AUC(0-t),[12],2020 ng·h/mL
same,AUC,"plasma, 300 mg, Day 21, TAK-935 300 mg BID, plasma, mean, read-out: AUCτ (AUC during a dosing interval)",2020 ng·h/mL
same,Cmax,"plasma, 300 mg, Day 21, TAK-935 300 mg BID, plasma, mean, read-out: Cmax",2060 ng/mL
same,Vd/F,[12],640 L
same,half-life,[12],176 min
same,Tmax,"plasma, 300 mg, Day 21, TAK-935 300 mg BID, plasma, median, read-out: tmax",30 min
same,AUC,"plasma, 300 mg, TAK-935, Day 21, 300 mg BID, read-out: Mean AUCτ",2020 ng·h/mL
same,Cmax,"plasma, 300 mg, TAK-935, Day 21, 300 mg BID, read-out: mean Cmax",2060 ng/mL
same,Tmax,"plasma, TAK-935, Day 7, Day 14 and Day 21, read-out: Median Tmax",30 min
